Data reported in ChEMBL document CHEMBL5360624, “Exploitation of Proximity-Mediated Effects in Drug Discovery: An Update of Recent Research Highlights in Perturbing Pathogenic Proteins and Correlated Issues” (J Med Chem, 2023).
Values belong to the compound of their own block, whether it stands above or below them.

Legend:
[1] = target: T1, von Hippel-Lindau disease tumor suppressor/SWI/SNF-related matrix-associated actin-dependent regulator of chromatin subfamily A member 2 (Homo sapiens, UniProt P51531+P40337); test: Protac activity at VHL/SMARCA2 in human RKO cells assessed as degradation of SMARCA2; type: cell-based
Target sequence in this assay (P51531 whole entry): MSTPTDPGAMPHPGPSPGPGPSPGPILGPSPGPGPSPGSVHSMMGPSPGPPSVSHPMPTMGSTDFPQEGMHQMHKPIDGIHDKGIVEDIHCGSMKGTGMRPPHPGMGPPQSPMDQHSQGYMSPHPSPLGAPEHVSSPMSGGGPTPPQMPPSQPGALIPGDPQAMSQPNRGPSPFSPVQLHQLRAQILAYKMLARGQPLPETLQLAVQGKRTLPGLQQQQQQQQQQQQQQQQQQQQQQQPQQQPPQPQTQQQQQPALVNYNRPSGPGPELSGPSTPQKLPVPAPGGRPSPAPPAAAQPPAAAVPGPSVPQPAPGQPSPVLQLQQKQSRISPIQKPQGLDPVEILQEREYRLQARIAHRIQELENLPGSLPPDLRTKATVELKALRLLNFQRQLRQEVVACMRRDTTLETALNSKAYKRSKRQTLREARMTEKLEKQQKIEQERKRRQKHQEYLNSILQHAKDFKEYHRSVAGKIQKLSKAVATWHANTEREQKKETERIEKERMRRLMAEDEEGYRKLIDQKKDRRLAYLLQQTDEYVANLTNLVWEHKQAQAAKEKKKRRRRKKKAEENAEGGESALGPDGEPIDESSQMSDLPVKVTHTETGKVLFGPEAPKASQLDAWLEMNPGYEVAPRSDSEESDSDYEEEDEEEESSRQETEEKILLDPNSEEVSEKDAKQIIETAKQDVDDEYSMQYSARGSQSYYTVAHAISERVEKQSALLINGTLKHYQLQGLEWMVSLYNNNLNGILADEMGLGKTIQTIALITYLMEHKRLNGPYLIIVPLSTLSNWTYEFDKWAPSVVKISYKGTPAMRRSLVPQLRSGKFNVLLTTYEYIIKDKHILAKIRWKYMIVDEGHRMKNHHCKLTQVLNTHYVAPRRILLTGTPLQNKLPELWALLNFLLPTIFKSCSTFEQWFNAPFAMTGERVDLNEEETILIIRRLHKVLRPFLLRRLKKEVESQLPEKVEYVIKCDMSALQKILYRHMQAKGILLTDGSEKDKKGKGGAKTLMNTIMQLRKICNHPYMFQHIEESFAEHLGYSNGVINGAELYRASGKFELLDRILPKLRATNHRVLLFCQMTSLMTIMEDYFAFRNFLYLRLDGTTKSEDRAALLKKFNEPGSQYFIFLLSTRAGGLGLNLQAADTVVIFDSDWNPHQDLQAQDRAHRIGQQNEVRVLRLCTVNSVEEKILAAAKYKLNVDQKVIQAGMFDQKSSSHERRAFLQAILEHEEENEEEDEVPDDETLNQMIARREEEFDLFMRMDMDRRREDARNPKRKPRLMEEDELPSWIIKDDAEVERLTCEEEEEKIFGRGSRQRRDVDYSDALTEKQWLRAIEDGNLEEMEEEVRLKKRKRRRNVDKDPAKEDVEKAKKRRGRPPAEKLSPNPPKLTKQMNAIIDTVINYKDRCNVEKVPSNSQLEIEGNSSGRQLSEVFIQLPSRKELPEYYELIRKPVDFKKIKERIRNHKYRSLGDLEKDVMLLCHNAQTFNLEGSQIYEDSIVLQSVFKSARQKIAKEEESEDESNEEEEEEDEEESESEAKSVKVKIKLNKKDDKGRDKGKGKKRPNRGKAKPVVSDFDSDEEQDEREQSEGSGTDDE
Target sequence in this assay (P40337 whole entry): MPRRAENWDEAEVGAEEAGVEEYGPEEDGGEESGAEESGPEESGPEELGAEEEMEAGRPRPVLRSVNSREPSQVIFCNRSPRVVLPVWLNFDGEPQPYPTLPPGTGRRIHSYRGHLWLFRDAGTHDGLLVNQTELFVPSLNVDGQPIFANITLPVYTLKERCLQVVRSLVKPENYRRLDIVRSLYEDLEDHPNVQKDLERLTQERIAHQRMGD

[2] = Oral bioavailability in NMRI mouse; type: ADME, organism-based; details: in vivo
[3] = target: von Hippel-Lindau disease tumor suppressor/SWI/SNF-related matrix-associated actin-dependent regulator of chromatin subfamily A member 4 (Homo sapiens, UniProt P51532+P40337); test: Protac activity at VHL/SMARCA4 in human RKO cells assessed as degradation of SMARCA4; type: cell-based
Homo sapiens = species on record: Homo sapiens; test: Selectivity index, ratio of DC50 for VHL/SMARCA2 in human RKO cells to DC50 for VHL/SMARCA4 in human RKO cells; type: cell-based
[4] = target: SWI/SNF-related matrix-associated actin-dependent regulator of chromatin subfamily A member 2 (Homo sapiens, UniProt P51531); test: Inhibition of SMARCA2 (unknown origin) assessed as dissociation constant
[5] = target: T1, von Hippel-Lindau disease tumor suppressor/SWI/SNF-related matrix-associated actin-dependent regulator of chromatin subfamily A member 2; test: Protac activity at VHL/SMARCA2 (unknown origin) assessed as degradation of SMARCA2; type: protein assay
Target sequence in this assay (P51531 whole entry): as the sequence (P51531 whole entry) above
Target sequence in this assay (P40337 whole entry): as the sequence (P40337 whole entry) above

[6] = target: T1, von Hippel-Lindau disease tumor suppressor/SWI/SNF-related matrix-associated actin-dependent regulator of chromatin subfamily A member 2; test: Protac activity at VHL/SMARCA2 (unknown origin) assessed as degradation of SMARCA2 relative to control; type: protein assay
Target sequence in this assay (P40337 whole entry, looked up): as the sequence (P40337 whole entry) above
Target sequence in this assay (P51531 whole entry, looked up): as the sequence (P51531 whole entry) above

Chain of von Hippel-Lindau disease tumor suppressor/SWI/SNF-related matrix-associated actin-dependent regulator of chromatin subfamily A member 4 (P51532 whole entry): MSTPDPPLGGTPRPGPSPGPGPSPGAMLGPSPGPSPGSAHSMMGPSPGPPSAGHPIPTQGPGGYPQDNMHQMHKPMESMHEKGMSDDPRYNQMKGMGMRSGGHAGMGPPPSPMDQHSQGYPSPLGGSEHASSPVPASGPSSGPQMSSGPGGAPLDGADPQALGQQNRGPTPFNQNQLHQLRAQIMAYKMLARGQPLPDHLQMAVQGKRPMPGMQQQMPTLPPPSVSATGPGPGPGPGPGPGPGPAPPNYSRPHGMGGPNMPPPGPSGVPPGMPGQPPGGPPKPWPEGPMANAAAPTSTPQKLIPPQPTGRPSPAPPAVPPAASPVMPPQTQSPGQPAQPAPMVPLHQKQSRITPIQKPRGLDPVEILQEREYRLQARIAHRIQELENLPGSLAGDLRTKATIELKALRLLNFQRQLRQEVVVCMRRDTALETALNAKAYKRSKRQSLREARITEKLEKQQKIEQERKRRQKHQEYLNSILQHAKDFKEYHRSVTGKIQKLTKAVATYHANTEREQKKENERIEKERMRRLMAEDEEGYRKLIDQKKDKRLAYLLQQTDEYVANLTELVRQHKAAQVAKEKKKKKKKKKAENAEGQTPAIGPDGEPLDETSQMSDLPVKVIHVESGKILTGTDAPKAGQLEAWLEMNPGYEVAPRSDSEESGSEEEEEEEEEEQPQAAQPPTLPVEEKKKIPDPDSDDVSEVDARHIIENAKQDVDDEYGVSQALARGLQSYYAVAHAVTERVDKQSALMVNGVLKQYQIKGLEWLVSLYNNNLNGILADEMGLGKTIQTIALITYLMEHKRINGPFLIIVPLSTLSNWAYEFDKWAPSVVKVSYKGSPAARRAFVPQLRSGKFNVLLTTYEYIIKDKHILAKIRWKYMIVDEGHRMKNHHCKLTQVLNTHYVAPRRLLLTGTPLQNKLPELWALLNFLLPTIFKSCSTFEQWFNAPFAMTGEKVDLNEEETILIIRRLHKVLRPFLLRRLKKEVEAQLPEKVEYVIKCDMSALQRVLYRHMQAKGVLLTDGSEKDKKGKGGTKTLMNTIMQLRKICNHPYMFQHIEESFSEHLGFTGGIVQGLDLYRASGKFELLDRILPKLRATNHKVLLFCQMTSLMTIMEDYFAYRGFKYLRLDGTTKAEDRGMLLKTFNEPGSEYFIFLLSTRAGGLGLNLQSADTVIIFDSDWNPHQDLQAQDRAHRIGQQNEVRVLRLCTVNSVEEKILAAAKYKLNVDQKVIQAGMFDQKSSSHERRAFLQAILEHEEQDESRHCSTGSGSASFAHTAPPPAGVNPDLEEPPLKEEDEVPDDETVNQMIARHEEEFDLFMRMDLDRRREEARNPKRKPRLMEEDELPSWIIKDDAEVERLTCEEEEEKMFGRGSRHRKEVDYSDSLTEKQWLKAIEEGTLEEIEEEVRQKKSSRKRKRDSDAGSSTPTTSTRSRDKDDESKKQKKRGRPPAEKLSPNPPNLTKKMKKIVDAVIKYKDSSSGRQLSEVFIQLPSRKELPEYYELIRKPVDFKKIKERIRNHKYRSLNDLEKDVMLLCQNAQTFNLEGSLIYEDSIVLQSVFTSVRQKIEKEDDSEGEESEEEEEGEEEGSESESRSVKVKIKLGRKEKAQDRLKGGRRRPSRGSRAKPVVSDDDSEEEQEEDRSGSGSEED
Chain of von Hippel-Lindau disease tumor suppressor/SWI/SNF-related matrix-associated actin-dependent regulator of chromatin subfamily A member 4 (P40337 whole entry): as the sequence (P40337 whole entry) above
Chain of SWI/SNF-related matrix-associated actin-dependent regulator of chromatin subfamily A member 2 (P51531 whole entry): as the sequence (P51531 whole entry) above

DC50 [1]: 1 nM
bioavailability [2]: 22%
DC50 [3]: 32 nM
Compound: Cc1ncsc1-c1ccc(CNC(=O)[C@@H]2C[C@@H](O)CN2C(=O)[C@@H](NC(=O)C2(F)CC2)C(C)(C)C)c(CC[C@H](C)CCN2CCC(c3ccc4c(c3)n(C3CCCC3)c3nc(=O)c5c(Br)cccc5n43)CC2)c1
Selectivity Index (Homo sapiens): > 30

Kd [4]: 46 nM
Compound: O=c1nc2n(C3CCCC3)c3cc(C4CCNCC4)ccc3n2c2cccc(Br)c12

DC50 [5]: 78 nM
Emax [6]: 46%
Compound: Cc1ncsc1-c1ccc(CNC(=O)[C@@H]2C[C@@H](O)CN2C(=O)[C@@H](NC(=O)C2(F)CC2)C(C)(C)C)c(OCCCN2CCC(c3ccc4c(c3)n(C3CCCC3)c3nc(=O)c5c(Br)cccc5n43)CC2)c1
